Measured values: patent US12178940B2, “Controlled hydrogel delivery of focal adhesion kinase inhibitor for decreased scar formation” (THE BOARD OF TRUSTEES OF THE LELAND STANFORD JUNIOR …, priority 2018, dated 2024)
Structures can show the parent of a compound that is named as a salt. Where two headings read alike, the source gives them in different places.

How the values were obtained:
advanced solid tumors = settings: cited from earlier work
FAK = FAK (Homo sapiens, UniProt Q05397); settings: class symbols of Table 1, legend not given; cited from earlier work
FAK, sequence (Q05397 whole entry, species assumed): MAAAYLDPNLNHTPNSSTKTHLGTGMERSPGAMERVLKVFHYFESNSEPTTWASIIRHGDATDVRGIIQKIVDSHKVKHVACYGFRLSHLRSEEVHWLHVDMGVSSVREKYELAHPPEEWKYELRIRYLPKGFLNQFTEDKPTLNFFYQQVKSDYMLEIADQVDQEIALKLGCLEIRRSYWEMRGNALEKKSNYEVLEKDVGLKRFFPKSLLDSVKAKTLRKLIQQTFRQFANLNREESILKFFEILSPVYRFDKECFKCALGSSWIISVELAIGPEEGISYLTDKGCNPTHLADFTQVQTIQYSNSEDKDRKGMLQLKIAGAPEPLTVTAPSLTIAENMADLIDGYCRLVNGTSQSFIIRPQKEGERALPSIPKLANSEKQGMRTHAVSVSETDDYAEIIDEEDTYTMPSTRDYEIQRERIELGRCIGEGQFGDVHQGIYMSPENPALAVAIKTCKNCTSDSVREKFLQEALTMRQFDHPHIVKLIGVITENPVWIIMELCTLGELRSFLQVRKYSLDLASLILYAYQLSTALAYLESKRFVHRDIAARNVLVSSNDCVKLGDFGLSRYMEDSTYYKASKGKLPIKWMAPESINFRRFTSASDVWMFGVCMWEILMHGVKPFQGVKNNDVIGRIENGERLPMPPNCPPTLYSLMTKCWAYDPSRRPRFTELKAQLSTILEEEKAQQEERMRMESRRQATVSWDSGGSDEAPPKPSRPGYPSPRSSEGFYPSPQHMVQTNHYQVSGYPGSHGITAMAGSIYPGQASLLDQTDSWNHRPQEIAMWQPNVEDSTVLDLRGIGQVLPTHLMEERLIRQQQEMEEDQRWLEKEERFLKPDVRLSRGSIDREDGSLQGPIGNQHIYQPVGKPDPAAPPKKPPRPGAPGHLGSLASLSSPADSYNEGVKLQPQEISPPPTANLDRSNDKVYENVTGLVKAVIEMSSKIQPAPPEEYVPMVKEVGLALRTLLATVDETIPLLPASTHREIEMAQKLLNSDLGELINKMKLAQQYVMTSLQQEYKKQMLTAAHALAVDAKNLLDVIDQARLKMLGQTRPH

Other Targets = settings: Table 1; cited from earlier work
murine dorsal incisions = assay type: in vivo; settings: daily local subcutaneous injection
Protocol: Hypertrophic scar model and local subcutaneous injection of FAKI: Incisional wounding and development of hypertrophic scars on the dorsum of mice were performed by previously described methods (Aarabi et al., 2007; Wong et al., 2011a). Animals were randomly assigned to receive 15, 75, or 150 μM concentrations of FAKI dissolved in 10% DMSO via daily local subcutaneous injection adjacent to the wound site. […] Specimens were harvested at Day 14 post-injury for histology and scar areas were quantified (FIG. 6).

incisional HTS model = settings: intradermal injection; cited from earlier work

Compound: CNC(=O)c1ccc(Nc2ncc(C(F)(F)F)c(NCc3nccnc3N(C)S(C)(=O)=O)n2)cc1 [Defactinib]
- efficacy in treatment of advanced solid tumors (advanced solid tumors; clinical trials): proven effective
- FAK (FAK): ✓

Compound: CC(C)=CCC/C(C)=C/CC/C(C)=C/CC/C(C)=C/CC/C(C)=C/CC/C(C)=C/CC/C(C)=C/CC/C(C)=C/CC/C(C)=C/CO [Solanesol]
- FAK (FAK): ✓

Compound: CN(c1ncccc1CNc1nc(Nc2ccc3c(c2)CC(=O)N3)ncc1C(F)(F)F)S(C)(=O)=O [PF-562271 HCl]
- Other Targets (Other Targets): CDK2/ CyclinE,CDK3/ CyclinE,CKD1/ CyclinB

Compound: CC(=O)NCC(=O)N1[C@@H]2CC[C@H]1c1ccc(Nc3ncc(C(F)(F)F)c(NC4CCC4)n3)cc12 [PF-03814735]
- Other Targets (Other Targets): Aurora A, Aurora B, FLT1

Compound: CN(c1ncccc1CNc1nc(Nc2ccc3c(c2)CC(=O)N3)ncc1C(F)(F)F)S(C)(=O)=O [PF-562271]
- efficacy in treatment of advanced solid tumors (advanced solid tumors; clinical trials): proven effective
- pharmacokinetics in clinical trials (advanced solid tumors; clinical trials): desired pharmacokinetics
- reason for discontinuation as an anti-cancer agent (advanced solid tumors; dosed orally): potential drug-drug interactions
- major systemic toxicities (advanced solid tumors; oral administration, clinical trials): nausea/vomiting and gastrointestinal-related adverse effects
- scar lesions (Masson's Trichrome) (murine dorsal incisions; 15 μM FAKI in 10% DMSO): reduced scar lesions
- scar lesions (Masson's Trichrome) (murine dorsal incisions; 75 μM FAKI in 10% DMSO): reduced scar lesions

Compound: CNC(=O)c1ccccc1Nc1nc(Nc2ccc(N3CCOCC3)cc2OC)ncc1Cl [TAE226]
- Other Targets (Other Targets): Insulin Receptor, IGF-1R, c-Met

Compound: CS(=O)(=O)c1cccc(CNc2nc(Nc3ccc4c(c3)CCC(=O)N4)ncc2C(F)(F)F)c1 [PF-573228]
- inflammatory chemokine pathways (incisional HTS model): suppressed inflammatory chemokine pathways
- scarring in vivo (incisional HTS model): attenuated scarring
